One assay has as its target T1, ATM (Homo sapiens, UniProt Q13315).
T1 construct: detecting phosphorylation of Chk2 in a human non-small cell lung cancer cell line NCI-H460 (ATCC company); host or cells: NCI-H460 human non-small cell lung cancer cells
Description: ATM inhibition test (phosphorylation of Chk2 generated by ionizing radiation, AlphaScreen SureFire). Particulars: phosphorylated Chk2 in NCI-H460 cells, ionizing radiation 8Gy, 1 hour after test compound treatment; read-out: ATM inhibitory activity. The class given is cell-based. The gist of the method: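 NCI-H460 cells treated with compound for 1 hour, then irradiated with 8Gy and incubated 1 hour at 37° C. Phospho-Chk2 measured by AlphaScreen SureFire. Inhibition ratio calculated relative to untreated irradiated and non-irradiated wells.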

The test system of assay [1] is human non-small cell lung cancer cell line NCI-H460. As to the kind of experiment: Cell proliferation inhibition test by sensitivity-enhancing to ionizing radiation (Cell Titer Glo). The class given is cell-based. Particulars: Homo sapiens, NCI-H460, 120 h, concentration in which SER became 2; NCI-H460 cells, ionizing radiation 2 Gy, cultured 120 hour. The gist of the method:
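Radiosensitisation measured as SER, a ratio of Cell Titer Glo luminescence in irradiated vs unirradiated plates relative to DMSO; SER2, the concentration yielding SER 2, came from sigmoidal regression. Compound (0.1% DMSO) was given 24 h post-seeding, 2 Gy applied 30 min later, then 120 hour culture at 37° C.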

T1 sequence (Q13315 whole entry): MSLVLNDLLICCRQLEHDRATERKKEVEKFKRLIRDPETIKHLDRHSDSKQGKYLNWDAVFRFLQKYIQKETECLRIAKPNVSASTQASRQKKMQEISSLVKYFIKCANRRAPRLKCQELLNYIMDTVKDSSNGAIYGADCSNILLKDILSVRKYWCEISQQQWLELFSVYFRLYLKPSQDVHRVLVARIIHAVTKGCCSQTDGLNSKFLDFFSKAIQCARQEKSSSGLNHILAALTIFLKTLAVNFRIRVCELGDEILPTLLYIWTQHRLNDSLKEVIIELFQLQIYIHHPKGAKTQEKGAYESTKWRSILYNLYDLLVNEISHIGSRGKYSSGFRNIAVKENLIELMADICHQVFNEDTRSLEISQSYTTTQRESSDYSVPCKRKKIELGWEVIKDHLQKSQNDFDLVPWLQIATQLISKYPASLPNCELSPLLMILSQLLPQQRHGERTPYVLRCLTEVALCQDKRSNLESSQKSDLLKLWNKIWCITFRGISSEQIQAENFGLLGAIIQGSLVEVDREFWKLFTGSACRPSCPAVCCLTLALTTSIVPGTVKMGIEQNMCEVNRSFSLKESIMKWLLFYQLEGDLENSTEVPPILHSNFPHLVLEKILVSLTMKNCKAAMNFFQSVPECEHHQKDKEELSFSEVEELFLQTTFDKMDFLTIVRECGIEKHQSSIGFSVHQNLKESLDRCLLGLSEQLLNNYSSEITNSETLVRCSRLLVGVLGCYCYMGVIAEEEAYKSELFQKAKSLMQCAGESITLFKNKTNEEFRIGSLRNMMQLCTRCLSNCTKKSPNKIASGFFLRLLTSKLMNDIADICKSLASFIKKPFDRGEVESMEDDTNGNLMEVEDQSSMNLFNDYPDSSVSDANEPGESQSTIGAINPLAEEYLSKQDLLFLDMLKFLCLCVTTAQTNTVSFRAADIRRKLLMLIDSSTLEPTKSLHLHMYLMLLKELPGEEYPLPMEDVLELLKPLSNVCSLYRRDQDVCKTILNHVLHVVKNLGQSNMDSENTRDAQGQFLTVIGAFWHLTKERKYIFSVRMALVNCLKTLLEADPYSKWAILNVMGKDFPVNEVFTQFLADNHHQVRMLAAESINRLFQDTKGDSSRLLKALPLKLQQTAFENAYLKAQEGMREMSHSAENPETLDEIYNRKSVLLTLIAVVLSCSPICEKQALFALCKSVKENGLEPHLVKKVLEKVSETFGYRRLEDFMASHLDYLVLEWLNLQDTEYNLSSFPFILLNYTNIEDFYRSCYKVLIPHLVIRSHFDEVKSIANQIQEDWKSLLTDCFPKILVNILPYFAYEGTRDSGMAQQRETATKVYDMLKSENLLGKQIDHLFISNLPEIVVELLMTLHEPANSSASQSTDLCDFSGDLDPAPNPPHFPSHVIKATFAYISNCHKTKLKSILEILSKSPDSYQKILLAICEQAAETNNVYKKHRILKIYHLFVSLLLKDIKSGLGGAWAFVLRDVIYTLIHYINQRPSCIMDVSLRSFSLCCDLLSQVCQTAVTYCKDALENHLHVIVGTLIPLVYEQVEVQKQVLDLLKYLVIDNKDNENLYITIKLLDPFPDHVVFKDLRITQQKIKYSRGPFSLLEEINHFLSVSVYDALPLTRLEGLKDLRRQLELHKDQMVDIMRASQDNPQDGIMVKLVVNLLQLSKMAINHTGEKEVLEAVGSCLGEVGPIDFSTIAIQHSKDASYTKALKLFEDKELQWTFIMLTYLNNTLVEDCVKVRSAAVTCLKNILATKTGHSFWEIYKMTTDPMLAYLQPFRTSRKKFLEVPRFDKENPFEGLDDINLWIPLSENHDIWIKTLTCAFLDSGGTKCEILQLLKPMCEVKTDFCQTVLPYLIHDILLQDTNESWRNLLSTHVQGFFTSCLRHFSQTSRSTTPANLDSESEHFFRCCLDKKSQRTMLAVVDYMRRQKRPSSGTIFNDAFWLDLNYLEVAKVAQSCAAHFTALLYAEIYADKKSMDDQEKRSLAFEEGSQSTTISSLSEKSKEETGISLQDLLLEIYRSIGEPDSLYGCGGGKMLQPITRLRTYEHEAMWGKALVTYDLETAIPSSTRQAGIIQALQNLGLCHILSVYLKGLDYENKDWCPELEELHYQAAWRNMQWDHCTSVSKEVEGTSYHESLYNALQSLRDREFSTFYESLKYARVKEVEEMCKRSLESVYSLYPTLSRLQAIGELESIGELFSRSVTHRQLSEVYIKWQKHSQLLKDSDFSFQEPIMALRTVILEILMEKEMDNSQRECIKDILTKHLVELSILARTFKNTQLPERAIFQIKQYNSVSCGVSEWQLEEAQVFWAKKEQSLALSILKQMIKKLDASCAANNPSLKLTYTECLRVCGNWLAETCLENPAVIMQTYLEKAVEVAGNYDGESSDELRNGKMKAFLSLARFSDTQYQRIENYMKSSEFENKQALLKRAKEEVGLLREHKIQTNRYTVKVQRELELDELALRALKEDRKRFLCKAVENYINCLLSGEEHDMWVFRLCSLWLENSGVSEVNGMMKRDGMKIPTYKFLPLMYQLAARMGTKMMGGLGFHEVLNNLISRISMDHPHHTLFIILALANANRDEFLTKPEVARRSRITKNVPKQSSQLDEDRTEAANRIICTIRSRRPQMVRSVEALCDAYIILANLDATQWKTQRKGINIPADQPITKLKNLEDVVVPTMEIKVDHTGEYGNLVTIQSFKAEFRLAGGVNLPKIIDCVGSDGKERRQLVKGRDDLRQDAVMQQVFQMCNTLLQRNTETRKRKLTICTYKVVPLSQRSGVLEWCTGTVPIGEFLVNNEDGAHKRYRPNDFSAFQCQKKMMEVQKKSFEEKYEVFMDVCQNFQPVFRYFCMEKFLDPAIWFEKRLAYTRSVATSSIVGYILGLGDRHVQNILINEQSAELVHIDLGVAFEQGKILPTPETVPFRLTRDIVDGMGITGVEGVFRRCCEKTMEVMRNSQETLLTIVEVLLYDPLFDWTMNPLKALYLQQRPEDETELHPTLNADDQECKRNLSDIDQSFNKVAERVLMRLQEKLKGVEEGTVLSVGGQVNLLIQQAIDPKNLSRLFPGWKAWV

For `O=c1cc(N2CCOCC2)cc(-c2c(F)ccc3c2Oc2ccc(NCc4cc(C5CC5)ccn4)cc2C3)[nH]1` [Example 2-46-3, 6-(7-(((4-Cyclopropylpyridin-2-yl)methyl)amino)-3-fluoro-9H-xanthen-4-yl)-4-morpholinopyridin-2(1H)-one], on ATM, the IC50 is less than 100 nM. In addition, in assay [1], the SER2 (concentration at which the radiation sensitivity-enhancement ratio reaches 2) is less than 100 nM.
In the case of `COc1cncc(CNc2ccc3c(c2)Sc2cccc(-c4cc(N5CCOCC5)cc(=O)[nH]4)c2O3)c1` [Example 4-8-1, 6-(8-(((5-Methoxypyridin-3-yl)methyl)amino)phenoxathiin-4-yl)-4-morpholinopyridin-2(1H)-one], the IC50 on ATM was less than 100 nM. The SER2 (concentration at which the radiation sensitivity-enhancement ratio reaches 2) in assay [1] was 100 to 500 nM.
On to `CC(Nc1ccc2c(c1)Sc1cccc(-c3cc(N4CCOCC4)cc(=O)[nH]3)c1S2)c1cnccn1` (stereo not drawn) [Example 1-12-63, 4-Morpholino-6-(7-((1-(pyrazin-2-yl)ethyl)amino)thianthren-1-yl)pyridin-2 (1H)-one], for which, on ATM, the IC50 was less than 100 nM. In assay [1], the SER2 (concentration at which the radiation sensitivity-enhancement ratio reaches 2) lay within 100 to 500 nM.
With `Cc1cccc(C(CN(C)C)Nc2ccc3c(c2)Sc2cccc(-c4cc(N5CCOCC5)cc(=O)[nH]4)c2S3)n1` (stereo not drawn) [Example 1-22-3, 6-(7-((2-(Dimethylamino)-1-(6-methylpyridin-2-yl)ethyl)amino)thianthren-1-yl)-4-morpholino pyridin-2 (1H)-one], the IC50 on ATM is less than 100 nM. The SER2 (concentration at which the radiation sensitivity-enhancement ratio reaches 2) in assay [1] is less than 100 nM.
With `N#Cc1cccc(CNc2ccc3c(c2)Cc2cccc(-c4cc(N5CCOCC5)cc(=O)[nH]4)c2O3)n1` [Example 2-14-13, 6-(((5-(4-Morpholino-6-oxo-1,6-dihydropyridin-2-yl)-9H-xanthen-2-yl)amino)methyl) picolinonitrile], at ATM, the IC50 is less than 100 nM. For the same compound, the SER2 (concentration at which the radiation sensitivity-enhancement ratio reaches 2) in assay [1] was in the range of 100 to 500 nM.
Consider `COCC(CN1CCOCC1)Nc1ccc2c(c1)Sc1cccc(-c3cc(N4CCOCC4)cc(=O)[nH]3)c1S2` (single isomer, unassigned) [Example 1-17-1-2, 6-(7-((1-methoxy-3-morpholinopropan-2-yl)amino)thianthren-1-yl)-4-morpholinopyridin-2(1H)-one], for which the IC50 at ATM was less than 100 nM. In assay [1], the SER2 (concentration at which the radiation sensitivity-enhancement ratio reaches 2) was less than 100 nM.
As for `Cc1cnc(C(C)Nc2ccc3c(c2)Cc2cccc(-c4cc(N5CCOCC5)cc(=O)[nH]4)c2O3)cn1` (stereo not drawn) [Example 2-14-24, 6-(7-((1-(5-Methylpyrazin-2-yl)ethyl)amino)-9H-xanthen-4-yl)-4-morpholino pyridin-2(1H)-one], on ATM, the IC50 is less than 100 nM. The SER2 (concentration at which the radiation sensitivity-enhancement ratio reaches 2) in assay [1] was 100 to 500 nM.
Regarding `CC(Nc1ccc2c(c1)Cc1cccc(-c3cc(N4CCOCC4)cc(=O)[nH]3)c1O2)c1nccc(CF)n1` (single isomer, unassigned) [Example 2-14-94-1, 6-(7-((1-(4-(fluoromethyl)pyrimidin-2-yl)ethyl)amino)-9H-xanthen-4-yl)-4-morpholinopyridin-2(1H)-one], the IC50 on ATM is less than 100 nM. Moreover, in assay [1], the SER2 (concentration at which the radiation sensitivity-enhancement ratio reaches 2) is less than 100 nM.
Consider `CC(Nc1ccc2c(c1)Sc1cccc(-c3cc(N4CCOCC4)cc(=O)[nH]3)c1S2)c1cc(CF)ncn1` (stereo not drawn) [Example 1-12-91, 6-(7-((1-(6-(Fluoromethyl)pyrimidin-4-yl)ethyl)amino)thianthren-1-yl)-4-morpholino pyridin-2(1H)-one], for which the IC50 on ATM was less than 100 nM. Further, in assay [1], the SER2 (concentration at which the radiation sensitivity-enhancement ratio reaches 2) was 100 to 500 nM.
`Cc1cc(CNc2ccc3c(c2)Cc2cccc(-c4cc(N5CCOCC5)cc(=O)[nH]4)c2O3)ccn1` [Example 2-2-20, 6-(7-(((2-Methylpyridin-4-yl)methyl)amino)-9H-xanthen-4-yl)-4-morpholino pyridin-2(1H)-one]: the IC50 at ATM is less than 100 nM. The SER2 (concentration at which the radiation sensitivity-enhancement ratio reaches 2) in assay [1] was 500 to 2000 nM.
Consider `O=c1cc(N2CCOCC2)cc(-c2cccc3c2Oc2ccc(NCc4ccc(F)nc4)cc2S3)[nH]1` [Example 4-8-24, 6-(8-(((6-Fluoropyridin-3-yl)methyl)amino)phenoxathiin-4-yl)-4-morpholino pyridin-2(1H)-one], for which the IC50 at ATM is less than 100 nM. The SER2 (concentration at which the radiation sensitivity-enhancement ratio reaches 2) in assay [1] was 100 to 500 nM.
On the same counts, the results for `COc1cccnc1CNc1ccc2c(c1)Sc1cccc(-c3cc(N4CCOCC4)cc(=O)[nH]3)c1O2` [Example 4-4-22, 6-(8-(((3-Methoxypyridin-2-yl)methyl)amino)phenoxathiin-4-yl)-4-morpholino pyridin-2(1H)-one] are less than 100 nM and 500 to 2000 nM.
On to `COC[C@H](CN1CCO[C@@H](C)C1)Nc1ccc2c(c1)Sc1cccc(-c3cc(N4CCOCC4)cc(=O)[nH]3)c1S2` [Example 1-46-6, 6-(7-(((S)-1-Methoxy-3-((S)-2-methylmorpholino)propan-2-yl)amino)thianthren-1-yl)-4-morpholino pyridin-2(1H)-one], for which, at ATM, the IC50 is less than 100 nM. For the same compound, the SER2 (concentration at which the radiation sensitivity-enhancement ratio reaches 2) in assay [1] was less than 100 nM.
Take `N#Cc1cccc(CNc2ccc3c(c2)Sc2cccc(-c4cc(N5CCOCC5)cc(=O)[nH]4)c2S3)n1` [Example 1-12-38, 6-(((6-(4-Morpholino-6-oxo-1,6-dihydropyridin-2-yl)thianthren-2-yl)amino)methyl)picolinonitrile]: the IC50 on ATM is less than 100 nM. Moreover, in assay [1], the SER2 (concentration at which the radiation sensitivity-enhancement ratio reaches 2) was less than 100 nM.
With `O=c1cc(N2CCOCC2)cc(-c2cccc3c2Oc2ccc(NCc4cc(Cl)ccn4)cc2S3)[nH]1` [Example 4-4-2, 6-(8-(((4-Chloropyridin-2-yl)methyl)amino)phenoxathiin-4-yl)-4-morpholino pyridin-2(1H)-one], the IC50 on ATM was less than 100 nM. In addition, in assay [1], the SER2 (concentration at which the radiation sensitivity-enhancement ratio reaches 2) lay within 100 to 500 nM.
As for `CN(C)c1ncc(CNc2ccc3c(c2)Cc2cccc(-c4cc(N5CCOCC5)cc(=O)[nH]4)c2O3)cn1` [Example 2-2-17, 6-(7-(((2-(Dimethylamino)pyrimidin-5-yl)methyl)amino)-9H-xanthen-4-yl)-4-morpholino pyridin-2(1H)-one], the IC50 at ATM was less than 100 nM. Besides, in assay [1], the SER2 (concentration at which the radiation sensitivity-enhancement ratio reaches 2) is 500 to 2000 nM.
Take `O=c1cc(N2CCOCC2)cc(-c2cccc3c2Sc2ccc(NCCN4CC5(COC5)C4)cc2S3)[nH]1` [Example 1-16-3, 6-(7-((2-(2-Oxa-6-azaspiro[3.3]heptan-6-yl)ethyl)amino)thianthren-1-yl)-4-morpholinopyridin-2(1H)-one]: on ATM, the IC50 was less than 100 nM. Further, in assay [1], the SER2 (concentration at which the radiation sensitivity-enhancement ratio reaches 2) lay within 100 to 500 nM.
Consider `Cc1cccc(C(C)Nc2ccc3c(c2)Sc2cccc(-c4cc(N5CCOCC5)cc(=O)[nH]4)c2S3)n1` (stereo not drawn) [Example 1-12-30, 6-(7-((1-(6-Methylpyridin-2-yl)ethyl)amino)thianthren-1-yl)-4-morpholino pyridin-2 (1H)-one], for which the IC50 on ATM was less than 100 nM. In addition, the SER2 (concentration at which the radiation sensitivity-enhancement ratio reaches 2) in assay [1] was less than 100 nM.
As to `Cc1cncc(C(C)Nc2ccc3c(c2)Sc2cccc(-c4cc(N5CCOCC5)cc(=O)[nH]4)c2S3)n1` (stereo not drawn) [Example 1-12-73, 6-(7-((1-(6-Methylpyrazin-2-yl)ethyl)amino)thianthren-1-yl)-4-morpholino pyridin-2 (1H)-one], the IC50 on ATM is less than 100 nM. Also, the SER2 (concentration at which the radiation sensitivity-enhancement ratio reaches 2) in assay [1] was less than 100 nM.
As for `COc1ccnc(CNc2ccc3c(c2)Sc2cccc(-c4cc(N5CCOCC5)cc(=O)[nH]4)c2O3)c1` [Example 4-8-8, 6-(8-(((4-Methoxypyridin-2-yl)methyl)amino)phenoxathiin-4-yl)-4-morpholino pyridin-2 (1H)-one], the IC50 at ATM was less than 100 nM. In addition, the SER2 (concentration at which the radiation sensitivity-enhancement ratio reaches 2) in assay [1] was 100 to 500 nM.
For `CC(Nc1ccc2c(c1)Cc1cccc(-c3cc(N4CCOCC4)cc(=O)[nH]3)c1O2)c1nccc(C(F)F)n1` (stereo not drawn) [Example 2-14-62, 6-(7-((l-(4-(Difluoromethyl)pyrimidin-2-yl)ethyl)amino)-9H-xanthen-4-yl)-4-morpholino pyridin-2(1H)-one], the IC50 on ATM is less than 100 nM. In addition, the SER2 (concentration at which the radiation sensitivity-enhancement ratio reaches 2) in assay [1] was 100 to 500 nM.
For `O=c1cc(N2CCOCC2)cc(-c2cccc3c2Oc2ccc(NCc4cnc5ccccc5c4)cc2S3)[nH]1` [Example 4-4-15, 4-Morpholino-6-(8-((quinolin-3-ylmethyl)amino)phenoxathiin-4-yl) pyridin-2(1H)-one], on ATM, the IC50 is less than 100 nM. Also, the SER2 (concentration at which the radiation sensitivity-enhancement ratio reaches 2) in assay [1] is 100 to 500 nM.
For the compound `CC(CN1CCN(c2ccccn2)CC1)Nc1ccc2c(c1)Sc1cccc(-c3cc(N4CCOCC4)cc(=O)[nH]3)c1S2` (stereo not drawn) [Example 1-13-17, 4-Morpholino-6-(7-((1-(4-(pyridin-2-yl)piperazin-1-yl)propan-2-yl)amino)thianthren-1-yl)pyridin-2 (1H)-one], the IC50 at ATM is less than 100 nM. In addition, the SER2 (concentration at which the radiation sensitivity-enhancement ratio reaches 2) in assay [1] was in the range of 100 to 500 nM.
On the same counts, the results for `COCc1cc(CNc2ccc3c(c2)Cc2cccc(-c4cc(N5CCOCC5)cc(=O)[nH]4)c2O3)ccn1` [Example 2-21-6, 6-(7-(((2-(Methoxymethyl)pyridin-4-yl)methyl)amino)-9H-xanthen-4-yl)-4-morpholino pyridin-2(1H)-one] are less than 100 nM and 500 to 2000 nM.

The record behind these values is US9586951B2 (FUJIFILM Corporation, priority 2013, dated 2017).
